Test results reported in paper PMC9475448, “What a difference a methylene makes: replacing Glu with Asp or Aad in the Lys-urea-Glu pharmacophore of PSMA-targeting radioligands to reduce kidney and salivary gland uptake” (Theranostics, 2022).

What was measured:
LNCaP tumor-bearing mice [1] = test: Ex vivo biodistribution of 177Lu-labeled ligands in LNCaP tumor-bearing NRG mice
[2] = system: LNCaP tumor and major mouse organs/tissues; test: Radiation dosimetry calculation with OLINDA software from biodistribution data; settings: 25-g mouse
Excerpt: The biodistribution data (available in the Supplemental Table s 5- 6) were used to determine the kinetics input values required by OLINDA. First, each of the values was decayed to its corresponding time point (the values on the table are shown at injection time). Then the different time-points of the uptake data (%IA/g) for each organ were fitted to both mono- exponential ( ) and bi-exponential ( ) functions using in-house software developed in Python. The best fit was selected based on maximizing the coefficient of determination (R2) of the fit and minimizing the residuals. The areas under the curves were analytically calculated based on the parameters obtained from the best fit of each organ and this provided the kinetic input values required by OLINDA.
In the mouse case, the adrenals, blood, fat, and muscle are not modeled in the phantom. These organs were grouped together and included in what OLINDA calls the remainder of the body .
Lastly, the numbers of decays in the tumors were also calculated based on the biodistribution data of the mice and the values were inputted into the sphere model available in OLINDA.

LNCaP tumor-bearing mice [3] = test: Longitudinal SPECT/CT imaging of 177Lu-labeled ligands; type: in vivo
Protocol: SPECT/CT imaging experiments were conducted using the MILabs (Utrecht, The Netherlands) U-SPECT-II/CT scanner. Each tumor-bearing mouse (n = 1-2 was injected with ∼37 MBq (50-250 pmol) of ^177Lu-labeled compound through a lateral caudal tail vein. The mice were imaged at 1, 4, 24, 72, and 120 h after injection. At each time point, a 5-min CT scan was conducted first for anatomical reference followed by 2 × 30-min static emission scans acquired in list mode.

LNCaP tumor-bearing mice [4] = test: Radioligand therapy study in LNCaP tumor-bearing NRG mice; settings: 37 MBq injected

## [^177Lu]Lu-PSMA-617
LNCaP tumor-bearing mice [1]; 24 h post-injection
  Tumor uptake: 13.18 ± 3.151 %IA/g
  Tumor:Blood uptake ratio: 4045 ± 1693
  Tumor:Kidney uptake ratio: 21.6 ± 8.83
  Tumor:Muscle uptake ratio: 2905 ± 453
  Tumor:Salivary gland uptake ratio: 371 ± 129
LNCaP tumor-bearing mice [1]; 72 h post-injection
  Adrenal glands uptake: 0.007 ± 0.004 %IA/g
  Blood uptake: 0.002 ± 0.001 %IA/g
  Blood:Salivary gland uptake ratio: 0.19 ± 0.08
  Bone uptake: 0.006 ± 0.003 %IA/g
  Brain uptake: 0.008 ± 0.002 %IA/g
  Fat uptake: 0.006 ± 0.012 %IA/g
  Heart uptake: 0.004 ± 0.001 %IA/g
  Intestines uptake: 0.062 ± 0.080 %IA/g
  Kidneys uptake: 0.181 ± 0.046 %IA/g
  Lacrimal glands uptake: 0.023 ± 0.009 %IA/g
  Liver uptake: 0.021 ± 0.004 %IA/g
  Lungs uptake: 0.011 ± 0.002 %IA/g
  Muscle uptake: 0.004 ± 0.004 %IA/g
  Pancreas uptake: 0.003 ± 0.001 %IA/g
  Salivary glands uptake: 0.012 ± 0.003 %IA/g
  Spleen uptake: 0.016 ± 0.005 %IA/g
  Stomach uptake: 0.096 ± 0.155 %IA/g
  Testes uptake: 0.014 ± 0.012 %IA/g
  Thyroid uptake: 0.009 ± 0.002 %IA/g
  Tumor uptake: 11.0±2.12 %IA/g
  Tumor:Blood uptake ratio: 5784 ± 1756
  Tumor:Kidney uptake ratio: 62.4 ± 11.1
  Tumor:Muscle uptake ratio: 4712 ± 3587
  Tumor:Salivary gland uptake ratio: 969 ± 241
LNCaP tumor-bearing mice [1]; 72 h post-injection, listed as [177Lu]Lu-PSMA-617
  Tumor uptake: 10.97 ± 2.122 %IA/g
LNCaP tumor-bearing mice [1]; 120 h post-injection
  Adrenal glands uptake: 0.005 ± 0.008 %IA/g
  Blood uptake: 0.002 ± 0.001 %IA/g
  Blood:Salivary gland uptake ratio: 0.42 ± 0.19
  Bone uptake: 0.003 ± 0.004 %IA/g
  Brain uptake: 0.007 ± 0.001 %IA/g
  Fat uptake: 0.002 ± 0.001 %IA/g
  Heart uptake: 0.002 ± 0.001 %IA/g
  Intestines uptake: 0.012 ± 0.011 %IA/g
  Kidneys uptake: 0.111 ± 0.054 %IA/g
  Lacrimal glands uptake: 0.021 ± 0.010 %IA/g
  Liver uptake: 0.016 ± 0.004 %IA/g
  Lungs uptake: 0.006 ± 0.001 %IA/g
  Muscle uptake: 0.002 ± 0.002 %IA/g
  Pancreas uptake: 0.001 ± 0.001 %IA/g
  Salivary glands uptake: 0.005 ± 0.002 %IA/g
  Spleen uptake: 0.013 ± 0.004 %IA/g
  Stomach uptake: 0.013 ± 0.013 %IA/g
  Testes uptake: 0.006 ± 0.002 %IA/g
  Thyroid uptake: 0.005 ± 0.001 %IA/g
  Tumor uptake: 12.3±5.52 %IA/g
  Tumor:Blood uptake ratio: 8895 ± 4881
  Tumor:Kidney uptake ratio: 126 ± 76.0
  Tumor:Muscle uptake ratio: 11627 ± 7865
  Tumor:Salivary gland uptake ratio: 3324 ± 2257
LNCaP tumor-bearing mice [1]; 120 h post-injection, listed as [177Lu]Lu-PSMA-617
  Tumor uptake: 12.25 ± 5.519 %IA/g
[2]; source organ Brain
  Kinetics value: 6.64E-03 MBq-h/MBq
[2]; source organ Cortical bone
  Kinetics value: 8.28E-03 MBq-h/MBq
[2]; source organ Heart contents
  Kinetics value: 3.28E-03 MBq-h/MBq
[2]; source organ Kidneys
  Kinetics value: 8.23E-01 MBq-h/MBq
[2]; source organ Large intestine
  Kinetics value: 8.80E-03 MBq-h/MBq
[2]; source organ Liver
  Kinetics value: 6.38E-02 MBq-h/MBq
[2]; source organ Lungs
  Kinetics value: 4.85E-03 MBq-h/MBq
[2]; source organ Pancreas
  Kinetics value: 4.76E-03 MBq-h/MBq
[2]; source organ Remainder of the body
  Kinetics value: 1.68E-01 MBq-h/MBq
[2]; source organ Small intestine
  Kinetics value: 2.63E-02 MBq-h/MBq
[2]; source organ Spleen
  Kinetics value: 1.41E-02 MBq-h/MBq
[2]; source organ Stomach
  Kinetics value: 2.34E-04 MBq-h/MBq
[2]; source organ Testes
  Kinetics value: 4.23E-03 MBq-h/MBq
[2]; source organ Thyroid
  Kinetics value: 4.01E-04 MBq-h/MBq
[2]; source organ Urinary bladder contents
  Kinetics value: 8.04E-01 MBq-h/MBq
LNCaP tumor-bearing mice [3]; mouse, in vivo
  Excretion pathway (SPECT imaging): excreted mainly via the renal pathway
LNCaP tumor-bearing mice [3]; ~37 MBq injected
  Tumor size change in SPECT/CT images: tumors shrank from Day 1 to Day 5
LNCaP tumor-bearing mice [4]
  Median survival: 63 days
